# Patent US20090264401A1, “SUBSTITUTED PYRIMIDIN-5-CARBOXAMIDES 281” (AstraZeneca AB, priority 2008, published 2009)
# Biological target: T1, human 11βHSD1 enzyme (Homo sapiens, UniProt P28845)
# T1 construct: baculovirus expressed N terminal 6-His tagged full length human 11βHSD1 enzyme; 6-His (N); made in house
# Assay: 11βHSD1 cortisone to cortisol conversion, competitive HTRF assay
# Type: biochemical
# Conditions: for inhibition at 30 µM: human 11-βHSD, test concentration of 30 μM of compound; for IC50: recombinant N terminal 6-His tagged full length human 11βHSD1, cortisone 160 nM, 25 minutes at 37° C.
# Protocol: The evaluation of compounds described herein was carried out using a baculovirus expressed N terminal 6-His tagged full length human 11βHSD1 enzyme(*1). The enzyme was purified from a detergent solubilised cell lysate, using a copper chelate column. Inhibitors of 11βHSD1 reduce the conversion of cortisone to cortisol, which is identified by an increase in signal, in the above assay.
# Compounds to be tested were dissolved in dimethyl sulphoxide (DMSO) to 10 mM and diluted further in assay buffer containing 1% DMSO to 10 fold the final assay concentration. Diluted compounds were then plated into black 384 well plates (Matrix, Hudson N.H., USA).
# Fluorescence at 665 nm and 620 nm was measured and the 665 nm:620 nm ratio calculated using an Envision plate reader.
# T1 sequence (P28845 whole entry): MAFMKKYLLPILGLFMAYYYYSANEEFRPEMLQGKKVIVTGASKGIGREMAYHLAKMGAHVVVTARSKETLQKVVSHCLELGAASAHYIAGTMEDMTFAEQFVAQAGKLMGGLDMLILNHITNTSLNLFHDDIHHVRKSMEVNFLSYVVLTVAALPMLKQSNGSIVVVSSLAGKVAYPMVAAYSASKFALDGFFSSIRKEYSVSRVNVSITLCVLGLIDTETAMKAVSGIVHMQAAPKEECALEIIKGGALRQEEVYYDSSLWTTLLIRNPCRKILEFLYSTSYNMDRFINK
Structure (SMILES),inhibition at 30 µM,IC50
CC(C)(C)c1ncncc1C(=O)N[C@H]1C2CC3CC1C[C@@](O)(C3)C2 [Example 7],88.3%,–
"Cc1ncc(C(=O)NC2C3CC4CC(C3)CC2C4)c(C2CC2)n1 (stereo not drawn) [Example 12, N-(2-adamantyl)-4-cyclopropyl-2-methyl-pyrimidine-5-carboxamide]",97.3%,45 nM
"CC(C)(C)c1nc(N2CCOCC2)ncc1C(=O)NC1C2CC3CC(C2)CC1C3 (stereo not drawn) [Example 14, N-(2-Adamantyl)-4-tert-butyl-2-morpholin-4-ylpyrimidine-5-carboxamide]",108%,–
"Cc1nc(N2CCOCC2)ncc1C(=O)NC1C2CC3CC(C2)CC1C3 (stereo not drawn) [Example 15, N-(2-adamantyl)-4-methyl-2-morpholin-4-ylpyrimidine-5-carboxamide]",95.4%,–
"CCCSc1ncc(C(=O)N[C@H]2C3CC4CC2C[C@@](O)(C4)C3)c(SCCC)n1 [Example 16, N-[(2r,5s)-5-hydroxyadamantan-2-yl]-2,4-bis(propylsulfanyl)pyrimidine-5-carboxamide]",95.8%,2 nM
"CCCSc1ncc(C(=O)N[C@H]2C3CC4CC2C[C@@](O)(C4)C3)c(N(C)C)n1 [Example 18, 4-Dimethylamino-N-[(2r,5s)-5-hydroxyadamantan-2-yl]-2-propylsulfanylpyrimidine-5-carboxamide]",98.5%,3 nM
"CCCSc1nc(N2CCC[C@@H](CC(=O)OC)C2)ncc1C(=O)NC1CCCCC1 [Example 19, (S)-Methyl 2-(1-(5-(cyclohexylcarbamoyl)-4-(propylthio)pyrimidin-2-yl)piperidin-3-yl)acetate]",100%,14 nM
"CCCSc1nc(N2CCC[C@@H](CC(=O)O)C2)ncc1C(=O)NC1CCCCC1 [Example 20, {(3S)-1-[5-(Cyclohexylcarbamoyl)-4-(propylthio)pyrimidin-2-yl]piperidin-3-yl}acetic acid]",97.6%,2 nM
"CCCSc1ncc(C(=O)N[C@H]2C3CC4CC2C[C@@](O)(C4)C3)c(N2C[C@@H](C)O[C@@H](C)C2)n1 [Example 24, 4-[(2S,6R)-2,6-Dimethylmorpholin-4-yl]-N-[(2r,5s)-5-hydroxyadamantan-2-yl]-2-propylsulfanylpyrimidine-5-carboxamide]",68%,–
"CCCSc1nc(N2CCN(C(C)=O)CC2)ncc1C(=O)NC1C2CC3CC(C2)CC1C3 (stereo not drawn) [Example 27, 2-(4-Acetylpiperazin-1-yl)-N-(2-adamantyl)-4-propylsulfanyl-pyrimidine-5-carboxamide]",95.5%,–
"CCCSc1nc(N2CCN(S(C)(=O)=O)CC2)ncc1C(=O)NC1C2CC3CC(C2)CC1C3 (stereo not drawn) [Example 28, N-(2-adamantyl)-2-(4-methylsulfonylpiperazin-1-yl)-4-propylsulfanyl-pyrimidine-5-carboxamide]",103%,–
"CCCSc1nc(N2CCN(C(=O)N(C)C)CC2)ncc1C(=O)NC1C2CC3CC(C2)CC1C3 (stereo not drawn) [Example 29, N-(2-adamantyl)-2-[4-(dimethylcarbamoyl)piperazin-1-yl]-4-propylsulfanyl-pyrimidine-5-carboxamide]",100%,13 nM

# More lines, now with the values ahead:
inhibition at 30 µM,IC50,Structure (SMILES)
106%,370 nM,"O=C(N[C@H]1C2CC3CC1C[C@@](O)(C3)C2)c1cncnc1C1CC1 [Example 3, 4-cyclopropyl-N-[(2r,5s)-5-hydroxyadamantan-2-yl]pyrimidine-5-carboxamide]"
97.5%,70 nM,"CSc1ncc(C(=O)N[C@H]2C3CC4CC2C[C@@](O)(C4)C3)c(C2CC2)n1 [Example 11, 4-Cyclopropyl-N-[(2r,5s)-5-hydroxyadamantan-2-yl]-2-methylsulfanyl-pyrimidine-5-carboxamide]"
112%,14 nM,"O=C(NC1C2CC3CC(C2)CC1C3)c1cnc(N2CCOCC2)nc1C1CC1 (stereo not drawn) [Example 13, N-(2-adamantyl)-4-cyclopropyl-2-morpholino-pyrimidine-5-carboxamide]"
89.5%,–,"CCCSc1ncc(C(=O)N[C@H]2C3CC4CC2C[C@@](O)(C4)C3)c(NC)n1 [Example 22, N-[(2r,5s)-5-hydroxyadamantan-2-yl]-4-methylamino-2-propylsulfanylpyrimidine-5-carboxamide]"
97.4%,–,"CCCSc1nc(N2C[C@@H](C)O[C@@H](C)C2)ncc1C(=O)N[C@H]1C2CC3CC1C[C@@](O)(C3)C2 [Example 23, 2-[(2s,6r)-2,6-Dimethylmorpholin-4-yl]-N-[(2r,5s)-5-hydroxyadamantan-2-yl]-4-propylsulfanylpyrimidine-5-carboxamide]"
101%,–,"CCCSc1ncc(C(=O)N[C@H]2C3CC4CC2C[C@@](O)(C4)C3)c(N2CCN(C(C)=O)CC2)n1 [Example 25, 4-(4-Acetylpiperazin-1-yl)-N-[(2r,5 s)-5-hydroxyadamantan-2-yl]-2-propylsulfanylpyrimidine-5-carboxamide]"
89%,–,"CCCSc1nc(N2CCN(C(C)=O)CC2)ncc1C(=O)N[C@H]1C2CC3CC1C[C@@](O)(C3)C2 [Example 26, 2-(4-Acetylpiperazin-1-yl)-N-[(2r,5 s)-5-hydroxyadamantan-2-yl]-4-propylsulfanylpyrimidine-5-carboxamide]"
97.5%,33 nM,"COc1ncc(C(=O)N[C@H]2C3CC4CC2C[C@@](O)(C4)C3)c(C2CC2)n1 [Example 33, 4-Cyclopropyl-N-[(2r,5s)-5-hydroxyadamantan-2-yl]-2-methoxypyrimidine-5-carboxamide]"
98%,–,"CNc1ncc(C(=O)N[C@H]2C3CC4CC2C[C@@](O)(C4)C3)c(C2CC2)n1 [Example 34, 4-Cyclopropyl-N-[(2r,5s)-5-hydroxyadamantan-2-yl]-2-methylaminopyrimidine-5-carboxamide]"
106%,–,"O=C(N[C@H]1C2CC3CC1C[C@@](O)(C3)C2)c1cnc(N2CCSCC2)nc1C1CC1 [Example 35, 4-Cyclopropyl-N-[(2r,5s)-5-hydroxyadamantan-2-yl]-2-thiomorpholin-4-ylpyrimidine-5-carboxamide]"
99.5%,–,"O=C(N[C@H]1C2CC3CC1C[C@@](O)(C3)C2)c1cnc(N2CC[S+]([O-])CC2)nc1C1CC1 [Example 36, 4-Cyclopropyl-N-[(2r,5s)-5-hydroxyadamantan-2-yl]-2-(1-oxo-1,4-thiazinan-4-yl)pyrimidine-5-carboxamide]"
93.5%,–,"O=C(N[C@H]1C2CC3CC1C[C@@](O)(C3)C2)c1cnc(N2CCS(=O)(=O)CC2)nc1C1CC1 [Example 37, 4-Cyclopropyl-2-(1,1-dioxo-1,4-thiazinan-4-yl)-N-[(2r,5s)-5-hydroxyadamantan-2-yl]pyrimidine-5-carboxamide]"
94%,–,"O=C(N[C@H]1C2CC3CC1C[C@@](O)(C3)C2)c1cnc(N2CCSCC2)nc1C1CCC1 [Example 41, 4-Cyclobutyl-N-[(2r,5s)-5-hydroxyadamantan-2-yl]-2-thiomorpholin-4-ylpyrimidine-5-carboxamide]"
99.4%,–,"C[C@@H]1CN(c2ncc(C(=O)N[C@H]3C4CC5CC3C[C@@](O)(C5)C4)c(C3CC3)n2)C[C@H](C)O1 [Example 42, 4-Cyclopropyl-2-(2,6-dimethylmorpholin-4-yl)-N-[(2r,5s)-5-hydroxyadamantan-2-yl]pyrimidine-5-carboxamide]"
